Columns and labels:
patients = conditions: cited from earlier work
SNI mice [1] = experiment: Mechanical allodynia (Dynamic Plantar Aesthesiometer, paw withdrawal threshold) in spared nerve injury mice; format: in vivo; conditions: for MECHANICAL WITHDRAWAL THRESHOLD: SNI mice; for overall efficacy, mechanical withdrawal: both of the doses tested (2.5 and 5 mg/kg)
Protocol: (§1) Peripheral neuropathic pain is produced by multiple etiological factors that initiate a number of diverse mechanisms at different sites and in different disease states. Spared nerve injury (SNI) consists of partial ligation and transaction of the sciatic nerve which evolves in neuropathic pain whose typical manifestations are represented by thermal hyperalgesia and tactile allodynia.
(§2) Chronic pain symptoms are measured through changes in thermoceptive responses (which is indicative of thermal hyperalgesia) using Plantar Test Apparatus (Ugo Basile, Varese, Italy) and in mechanical paw withdrawal threshold (which is indicative of mechanical allodynia) by a Dynamic Plantar Aesthesiometer (Ugo Basile, Varese, Italy). Nociceptive responses were measured before and after surgery in groups of mice differently treated (vehicle or drugs different combinations).
(§3) The cannabinoids tested were CBG, CBC, CBDV, and THCV. […] The cannabinoids were prepared from whole plant extracts of cannabis plants which had been purified. The cannabinoids were dissolved in ringer/0.5% dimethyl sulfoxide (DMSO), for intraperitoneal (i.p.) administration.
(§4) Male CD-1 mice (35-40 g) were housed, 3 per cage, under controlled illumination (12:12 h light:dark cycle; light on 06.00 h) and environmental conditions (room temperature 20-22° C., humidity 55-60%) for at least 1 week before the commencement of experiments. Mouse chow and tap water were available ad libitum. The experimental procedures were approved by the Ethic Committee of the Second University of Naples. Animal care was in compliance with the IASP and European Community (E.C. L358/1 18/12/86) guidelines on the use and protection of animals in experimental research. All efforts were made to minimize animal suffering and to reduce the number of animals used.
(§5) Behavioural testing was performed before surgery to establish a baseline for comparison with post-surgical values. Mononeuropathy was induced according to the method of Bourquin and Decosterd (2006).
(§6) Mice were anaesthetized with sodium pentobarbital (60 mg/kg i.p.). The right hindlimb was immobilized in a lateral position and slightly elevated. Incision was made at mid-thigh level using the femur as a landmark. The sciatic nerve was exposed at mid-thigh level distal to the trifurcation and freed of connective tissue; the three peripheral branches (sural, common peroneal, and tibial nerves) of the sciatic nerve were exposed without stretching nerve structures.
(§7) Both tibial and common peroneal nerves were ligated and transacted together. A micro-surgical forceps with curved tips was delicately placed below the tibial and common peroneal nerves to slide the thread (5.0 silk, Ethicon, Johnson, and Johnson Intl, Brussels, Belgium) around the nerves. A tight ligation of both nerves was performed. The sural nerve was carefully preserved by avoiding any nerve stretch or nerve contact with surgical tools. Muscle and skin were closed in two distinct layers with silk 5.0 sutures.
(§8) Intense, reproducible and long-lasting thermal hyperalgesia and mechanical allodynia-like behaviors are measurable in the non-injured sural nerve skin territory. The SNI model offers the advantage of a distinct anatomical distribution with an absence of co-mingling of injured and non-injured nerve fibers distal to the lesion such as the injured and non-injured nerves and territories can be readily identified and manipulated for further analysis (i.e. behavioral assessment).
(§9) The sham procedure consisted of the same surgery without ligation and transection of the nerves.
(§10) The groups of mice were divided as follows, each cannabinoid tested has its own group of mice:
(§11) The cannabinoids were dosed daily for 14 days. Doses for all cannabinoids tested were: 2.5 and 5.0 mg/Kg. Vehicle solution was 0.5% DMSO in ringer solution.
Mechanical allodynia was measured by using Dynamic Plantar Anesthesiometer (Ugo Basile, Varese, Italy). […]

SNI mice [2] = experiment: Thermal hyperalgesia (Plantar Test Apparatus, paw withdrawal latency) in spared nerve injury mice; format: in vivo; conditions: for dose-dependence of effect on thermal withdrawal latency: 2.5 vs 5 mg/kg
Protocol: as §1, §2, §3, §4, §5, §6, §7, §8, §9, §10, §11
Thermal hyperalgesia was evaluated by using a Plantar Test Apparatus (Ugo Basile, Varese, Italy). […]

[3] = SNI mice, 2.5 mg/kg i.p. daily, DAY 3
[4] = SNI mice, 2.5 mg/kg i.p. daily, DAY 7
[5] = SNI mice, 2.5 mg/kg i.p. daily, DAY 14
[6] = SNI mice, 5 mg/kg i.p. daily, DAY 3
[7] = SNI mice, 5 mg/kg i.p. daily, DAY 7
[8] = SNI mice, 5 mg/kg i.p. daily, DAY 14

SMILES	MECHANICAL WITHDRAWAL THRESHOLD (SNI mice [1]; 2.5 mg/kg i.p. daily, DAY 3)	MECHANICAL WITHDRAWAL THRESHOLD (SNI mice [1]; 2.5 mg/kg i.p. daily, DAY 7)	MECHANICAL WITHDRAWAL THRESHOLD (SNI mice [1]; 2.5 mg/kg i.p. daily, DAY 14)	MECHANICAL WITHDRAWAL THRESHOLD (SNI mice [1]; 5 mg/kg i.p. daily, DAY 3)	MECHANICAL WITHDRAWAL THRESHOLD (SNI mice [1]; 5 mg/kg i.p. daily, DAY 7)	MECHANICAL WITHDRAWAL THRESHOLD (SNI mice [1]; 5 mg/kg i.p. daily, DAY 14)	overall efficacy, mechanical withdrawal (SNI mice [1])	overall efficacy, thermal withdrawal (SNI mice [2]; 2.5 mg/kg)	THERMAL WITHDRAWAL LATENCY (SNI mice [2]; 5.0 mg/kg, day 3)	dose-dependence of effect on thermal withdrawal latency (SNI mice [2])	THERMAL WITHDRAWAL LATENCY (SNI mice [2]; [3])	THERMAL WITHDRAWAL LATENCY (SNI mice [2]; [4])	THERMAL WITHDRAWAL LATENCY (SNI mice [2]; [5])	THERMAL WITHDRAWAL LATENCY (SNI mice [2]; [6])	THERMAL WITHDRAWAL LATENCY (SNI mice [2]; [7])	THERMAL WITHDRAWAL LATENCY (SNI mice [2]; [8])	also measured
NC(=O)N1c2ccccc2C=Cc2ccccc21 [carbamezepine]																	decrease in white blood cell count (patients; in 7% of patients): 25%; increase in the risk of blood dyscrasias (patients; post-marketing studies, patients taking carbamezepine): five- to eight-fold
CCCCCc1cc(O)c2c(c1)OC(C)(CCC=C(C)C)C=C2 (centres unmarked) [CBC, cannabichromene]	2.4 g	4.5 g	5.0 g	5.1 g	9.7 g	5.2 g	relatively ineffective	relatively ineffective	able to increase the amount of time before the animal withdrew its paw	do not appear to be dose-dependent	3.7 s	4.8 s	5.2 s	6.0 s	7.0 s	7.2 s	mechanical withdrawal, course over time (SNI mice [1]; 5.0 mg/kg, day 7 to day 14): large increase at day 7; however this latency decreased again at the 14 day time point
CCCCCc1cc(O)c(C/C=C(\C)CCC=C(C)C)c(O)c1 [CBG, cannabigerol]	3.4 g	6.1 g	7.8 g	6.0 g	6.1 g	7.8 g	good efficacy	highest thermal withdrawal latency of all the cannabinoids	able to increase the amount of time before the animal withdrew its paw	do not appear to be dose-dependent	5.5 s	5.4 s	7.0 s	7.8 s	7.6 s	7.5 s	ability to treat neuropathic pain compared with CBD (SNI mice [1]; mechanical withdrawal data): superior to CBD; THERMAL WITHDRAWAL LATENCY (SNI mice [2]; 2.5 mg/kg, day 3): increase in the amount of thermal withdrawal latency; ability to treat neuropathic pain compared with CBD (SNI mice [2]; thermal withdrawal data): superior to CBD
